Experiments:
A. planipennis antennae [1] = assay: GC-EAD analysis; parameters: species or system Agrilus planipennis; settings: synthetic mixture of (3E)- and (3Z)-lactones
Procedure: A Varian CP-3380 gas chromatograph with FID detector was modified for use with a GC-EAD signal recording device (IDAC-232). EAG data were analyzed using Syntech GC-EAD software v.2.6 (SYNTECH, The Netherlands). The column used for analysis was a Supelco SPB-5 capillary (30 m×0.32 mm×0.25 μm film) in the splitless mode with helium as carrier gas. The injection port was at 220° C. and the oven temperature was programmed from 70° C., held for 1 min and then increased at 10° C./min to 240° C. and held for 30 min. A number of GC-EAD runs on male and female volatiles were carried out. Both the (3Z)-lactone and (3E)-lactone were diluted to 10 μg/ml in hexane; 1 μl of diluted pheromone was injected for each GC-EAD run.
Ten nanograms was injected for the GC-EAD analysis consisting of 90% (3Z)-lactone and 10% (3E)-lactone using a DB-1 (15 m×0.25 mm ID, 1 μm film) capillary column (J&W Scientific, Folsom, Calif.). The GC oven temperature program was 50° C. for 1 min, then increased at 20° C./min and held at 280° C. for 2 min. The GC-EAD responses of five male and five female EAB antennae were analyzed.

A. planipennis = assay: Two-choice Y-tube olfactometer assay; type: in vivo, Agrilus planipennis; settings: males; lactone 10 μg, (3Z)-hexenol 5 μg; chi-square test
Procedure: A Y-tube olfactometer (Analytical Research Systems Inc, Gainsville, Fla.) was used to test for attraction of A. planipennis to lactone isomers and host volatiles. […] Each arm was connected to a cylinder that contained the stimulus. Charcoal filtered air was passed into each arm at a flow rate of 1.2 L/min. Treatments included the pheromone alone: (3Z)-lactone (10 μg); (3E)-lactone (10 μg); and 60:40 (3E):(3Z)-lactone (10 μg). Next, we tested bark sesquiterpenes and a green leaf volatile alone: Phoebe oil (25 μg and 2.5 μg) and (3Z)-hexenol (5 μg). We then tested the pheromone combined with bark sesquiterpenes: (3Z)-lactone (10 μg)+Phoebe oil (at both 25 μg and 2.5 μg); (3E)-lactone (10 μg)+Phoebe oil (at both 25 μg and 2.5 μg). Finally, we tested the pheromone combined with the green leaf volatile: (3Z)-lactone (10 μg)+(3Z)-hexenol (5 μg); and (3E)-lactone (10 μg)+(3Z)-hexenol (5 μg). Each stimulus (l μl for single compound treatments and a total of 2 μl for two-compound treatments) was diluted in hexane, placed on a strip of filter paper and given one minute for the solvent to evaporate before being placed in the olfactometer. A second filter paper, treated with the equivalent volume of solvent was placed in the other arm of the olfactometer to serve as the control. The apparatus was rinsed with acetone after each treatment, and the arm attached to the test stimulus was randomized between replicates.
For each treatment, we tested increasing numbers of adults until we obtained a minimum of 12 beetles responding to the stimuli (either positively or negatively). To obtain this minimum, we tested 15-54 beetles per treatment. For each trial, a single A. planipennis (mature virgin male or female, >10 days old) was given ten minutes to choose between the two stimuli; adults were used only once in the bioassay. […] A chi-square test was conducted for each independent trial.

[2] = Effect of light on (3Z)-lactone (isomerization); type: physicochemical; settings: for isomerization in direct sunlight: quartz cuvette or surface of female cadavers, 2-3 days
Procedure: To determine whether light would promote the isomerization from (3Z) to (3E)-lactone, 20 mg of (3Z)-lactone was placed neat on a glass slide 10 mm below a UV light (UVG-54 handheld UV-lamp, 254 nm, 6w; UVP Upland Calif., USA) for three d. Subsamples (taken as 1 mg in a pipette) were analyzed by GC/MS at regular intervals and the ratio of (3E):(3Z)-lactone was recorded. In addition, 6 mg of each of (3Z)- and (3E)-lactones (neat) were coated on the quartz surface of a cuvette and exposed outdoors to sunlight at 11° C. mean temperature for 9 d for an average of 5 h a day. Finally, (3Z)-lactone was coated (4 mg) on the dorsal surface of abdomen and […] of 3 female EAB cadavers that were exposed to sunlight for 6 h per day for 1, 2 or 3 d at 10° C. mean temperature; cadavers were stored at 4° C. between sunny days. The lactones were removed from cuvettes and cadavers with hexane washing and analysed by GC/MS to determine the E:Z ratio.

A. planipennis antennae [3] = assay: EAG dose-response study; parameters: species or system Agrilus planipennis; settings: for EAG responsiveness of female antennae compared with male antennae: particularly at higher doses, P<0.0001; for EAG response of female antennae, (3Z)- vs (3E)-lactone: stimulus doses 0.01-100 μg, P=0.91
Description: EAG analyses were made by methods and equipment generally described by Cossé & and Bartelt (2000). EAG connections were made by inserting a glass-pipette silver-grounding electrode into the back of an excised beetle head. A second glass-pipette silver-recording probe was placed in contact with the distal end of one antenna. Both pipettes were filled with Beadle-Ephrussi (Ephrussi and Beadle 1936) saline.
For the EAG-dose-response study, (3Z)- and (3E)-lactones were purified (99.9% purity by GC/MS) by high performance liquid chromatography (HPLC) using a Waters 515 pump, a Waters R401 refractive index detector, and a 25 cm by 0.46 cm i.d. silica column (Adsorbosphere Silica 5 μm, Alltech, Deerfield, Ill.), treated with silver nitrate as described by Heath and Sonnett (1980). Solvent was 8% ether in hexane. Ten micro liters of serially diluted solutions (methylene chloride) of synthetic (3Z)-lactone and (3E)-lactone were applied to filter paper strips (0.5 cm×5 cm, Whatman no. 1). The filter paper strips were placed in 14-cm-long Pasteur pipettes, hereafter referred to as stimulus cartridges, after 5 min at room temperature. Stimulus doses tested were 0.01, 0.1, 1, 10, and 100 μg. Male and female antennae were exposed to single 0.2s puffs of odor-bearing air at 5 ml/s by placing the tip of an stimulus cartridge into a hole of a glass tube (0.7 cm ID×20 cm), 10 cm from the outlet and 11 cm away from the antennal preparation. Airflow through the glass tube was humidified and set at 10 ml/s. Puff duration and airflow speeds were maintained by a stimulus flow controller (SFC-2, Syntech, Hilversum, The Netherlands). Stimuli cartridges were selected in random order, beginning with the lowest dosages and working upward to the highest dosages. Each puffed dosage was preceded and followed by a puff from a solvent blank cartridge (filter paper plus solvent). To compensate for possible deterioration of the antennal preparation, a standard control compound, geranyl acetone (1 μg dose) preceded dosages of stimuli compound. EAG amplitudes were normalized according to the responses to geranyl acetone by dividing the amplitude of the EAG generated by the test compounds by that of geranyl acetone. Dose-response series were replicated, using different antennal preparation for each replication, and the EAG responses were expressed as a percentage of the EAG responses to geranyl acetone. Each antennal preparation was tested with freshly prepared sets of stimuli cartridges. Male and female EAG responses were submitted to analysis of variance (ANOVA) using Statistica for Windows software (StatSoft Inc. Tulsa, Okla.)).

Row | isomerization in direct sunlight [2] | effect of storing in a pyrex container (filters out UV-light) [2] | conjugated isomer formed on UV exposure ([2]; UV lamp 254 nm, GC/MS) | (3E):(3Z) ratio, initial lactone sample ([2]; before UV exposure) | (3E):(3Z) ratio after exposure to UV light ([2]; neat, UV lamp 254 nm, three d) | stability to isomerization under normal laboratory fluorescent lighting ([2]; preliminary studies) | Compound | GC-FID/EAD responses of male and female antennae (A. planipennis antennae [1]) | attraction of males in Y-tube olfactometer vs hexane control (A. planipennis) | EAG responsiveness of female antennae compared with male antennae (A. planipennis antennae [3]) | EAG response of female antennae, (3Z)- vs (3E)-lactone (A. planipennis antennae [3])
1 | very slow isomerization |  |  |  |  |  | O=C1C/C=C/CCCCCCCCO1 [(3E)-lactone, (3E)-dodecen-12-olide] | significant responses | significantly attracted | more responsive | did not respond differently
2 | very slow isomerization | preventing photoisomerisation | < 1% | 0.028 | 0.60 | very stable | O=C1C/C=C\CCCCCCCCO1 [(3Z)-lactone, (3Z)-dodecen-12-olide] | significant responses | not | more responsive | did not respond differently

From patent US9226503B2, “Composition and method for attraction of emerald ash borer Agrilus planipennis fairmaire (coleoptera: buprestidae)” (Her Majesty the Queen in Right of Canada, as represented by …, priority 2011, dated 2016)
